From US20120088759A1, “THIAZOLIDIN-4-ONE AND [1,3]-THIAZINAN-4-ONE COMPOUNDS AS OREXIN RECEPTOR ANTAGONISTS” (priority 2009, published 2012)

Tests used:
rat [1] = conditions: cited from earlier work
rat [2] = conditions: rat model; cited from earlier work
rat [3] = conditions: cited from earlier work; remark: listed apart in the source
human orexin-2 receptor = molecular target: T1, human orexin-2 receptor (Homo sapiens, UniProt O43614); assay: FLIPR intracellular calcium assay, orexin receptor antagonistic activity (OX2); type: cell-based; conditions: CHO cells expressing human orexin-2 receptor; 3 nM orexin-A; normalized to on-plate reference; *n = geometric mean from n values
T1 construct: expressed in transfected cells; host or cells: CHO (Chinese hamster ovary) cells, kept under G418
T1 sequence (O43614 1-444): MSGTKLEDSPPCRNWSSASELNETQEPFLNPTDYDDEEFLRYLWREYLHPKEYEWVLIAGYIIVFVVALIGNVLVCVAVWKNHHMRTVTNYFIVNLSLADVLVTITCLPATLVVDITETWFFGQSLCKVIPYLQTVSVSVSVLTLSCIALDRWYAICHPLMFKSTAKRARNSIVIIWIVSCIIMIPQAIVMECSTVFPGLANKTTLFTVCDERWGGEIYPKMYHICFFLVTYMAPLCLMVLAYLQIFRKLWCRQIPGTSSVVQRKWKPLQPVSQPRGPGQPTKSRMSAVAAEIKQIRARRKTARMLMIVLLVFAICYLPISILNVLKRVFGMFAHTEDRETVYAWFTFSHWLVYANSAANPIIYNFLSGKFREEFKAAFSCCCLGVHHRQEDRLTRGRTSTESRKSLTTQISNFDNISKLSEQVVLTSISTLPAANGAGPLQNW
Protocol: (§1) The orexin receptor antagonistic activity of the compounds of formula (I) is determined in accordance with the following experimental method.
(§2) Chinese hamster ovary (CHO) cells expressing the human orexin-1 receptor and the human orexin-2 receptor, respectively, are grown in culture medium (Ham F-12 with L-Glutamine) containing 300 μg/ml G418, 100 U/ml penicillin, 100 μg/ml streptomycin and 10% heat inactivated fetal calf serum (FCS). The cells are seeded at 20′000 cells/well into 384-well black clear bottom sterile plates (Greiner). The seeded plates are incubated overnight at 37° C. in 5% CO2.
(§3) Human orexin-A as an agonist is prepared as 1 mM stock solution in MeOH:water (1:1), diluted in HBSS containing 0.1% bovine serum albumin (BSA), NaHCO3: 0.375 g/l and 20 mM HEPES for use in the assay at a final concentration of 3 nM.
(§4) Antagonists are prepared as 10 mM stock solution in DMSO, then diluted in 384-well plates using DMSO followed by a transfer of the dilutions into in HBSS containing 0.1% bovine serum albumin (BSA), NaHCO3: 0.375 g/l and 20 mM HEPES. On the day of the assay, 50 μl of staining buffer (HBSS containing 1% FCS, 20 mM HEPES, NaHCO3: 0.375 g/l, 5 mM probenecid (Sigma) and 3 μM of the fluorescent calcium indicator fluo-4 AM (1 mM stock solution in DMSO, containing 10% pluronic) is added to each well. The 384-well cell-plates are incubated for 50 min at 37° C. in 5% CO2 followed by equilibration at rt for 30-120 min before measurement.
(§5) Within the Fluorescent Imaging Plate Reader (FLIPR Tetra, Molecular Devices), antagonists are added to the plate in a volume of 10 μl/well, incubated for 10 min and finally 10 μl/well of agonist is added. Fluorescence is measured for each well at 1 second intervals, and the height of each fluorescence peak is compared to the height of the fluorescence peak induced by 3 nM orexin-A with vehicle in place of antagonist. For each antagonist, the IC50 value (the concentration of compound needed to inhibit 50% of the agonistic response) is determined and normalized using the obtained IC50 value of a on-plate reference compound. Optimized conditions were achieved by adjustment of pipetting speed and cell splitting regime. The calculated IC50 values of the compounds may fluctuate depending on the daily cellular assay performance. Fluctuations of this kind are known to those skilled in the art.

human orexin-1 receptor = molecular target: T2, human orexin-1 receptor (Homo sapiens, UniProt O43613); assay: FLIPR intracellular calcium assay, orexin receptor antagonistic activity (OX1); type: cell-based; conditions: CHO cells expressing human orexin-1 receptor; 3 nM orexin-A; normalized to on-plate reference; *n = geometric mean from n values
T2 construct: expressed in transfected cells; host or cells: CHO (Chinese hamster ovary) cells, kept under G418
T2 sequence (O43613 1-425): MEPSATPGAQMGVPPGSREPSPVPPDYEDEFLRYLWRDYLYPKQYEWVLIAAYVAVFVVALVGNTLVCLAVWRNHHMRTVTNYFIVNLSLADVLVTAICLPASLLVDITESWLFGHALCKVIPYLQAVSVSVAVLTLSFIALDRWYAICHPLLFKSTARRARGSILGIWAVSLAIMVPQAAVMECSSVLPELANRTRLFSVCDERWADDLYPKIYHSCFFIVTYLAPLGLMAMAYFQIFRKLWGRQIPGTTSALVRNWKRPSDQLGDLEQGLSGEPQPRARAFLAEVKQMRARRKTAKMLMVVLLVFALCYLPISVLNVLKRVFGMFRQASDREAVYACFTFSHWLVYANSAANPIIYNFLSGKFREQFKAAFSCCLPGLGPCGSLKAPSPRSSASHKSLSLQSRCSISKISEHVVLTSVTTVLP
Protocol: as §1, §2, §3, §4, §5

SMILES | activity in a rat model of post-traumatic stress disorder (rat [1]) | memory function (rat [2]) | alertness, characterized by active wake and locomotion (rat [3]) | time spent in both REM and NREM sleep (rat [3]) | IC50 (human orexin-2 receptor) [nM] | IC50 (human orexin-1 receptor) [nM]
CNC(=O)[C@@H](c1ccccc1)N1CCc2cc(OC)c(OC)cc2[C@@H]1CCc1ccc(C(F)(F)F)cc1 [(2R)-2-{(1S)-6,7-dimethoxy-1-[2-(4-trifluoromethyl-phenyl)-ethyl]-3,4-dihydro-1H-isoquinolin-2-yl}-N-methyl-2-phenylacetamide] | active | enhance memory function | decrease alertness | dose-dependently increase | – | –
COc1cccc(OC)c1C1SCC(=O)N1Cc1ccc(Oc2ccc(C)nn2)cc1 (stereo not drawn) [Example 280, 2-(2,6-Dimethoxy-phenyl)-3-[4-(6-methyl-pyridazin-3-yloxy)-benzyl]-thiazolidin-4-one] | – | – | – | – | 121 | 1740
COc1cccc(OC)c1C1SCC(=O)N1Cc1ccc(Oc2ccc(C)cn2)cc1 (stereo not drawn) [Example 281, 2-(2,6-Dimethoxy-phenyl)-3-[4-(5-methyl-pyridin-2-yloxy)-benzyl]-thiazolidin-4-one] | – | – | – | – | 61 | 781
COc1cccc(Oc2ccc(CN3C(=O)CSC3c3c(OC)cccc3OC)cc2)n1 (stereo not drawn) [Example 282, 2-(2,6-Dimethoxy-phenyl)-3-[4-(6-methoxy-pyridin-2-yloxy)-benzyl]-thiazolidin-4-one] | – | – | – | – | 127 | 1950
COc1cccc(OC)c1C1SCC(=O)N1Cc1ccc(Oc2cccc(C)n2)cc1 (stereo not drawn) [Example 283, 2-(2,6-Dimethoxy-phenyl)-3-[4-(6-methyl-pyridin-2-yloxy)-benzyl]-thiazolidin-4-one] | – | – | – | – | 51 | 942
COc1cccc(OC)c1C1SCC(=O)N1Cc1ccc(Oc2cc(C)ccn2)cc1 (stereo not drawn) [Example 284, 2-(2,6-Dimethoxy-phenyl)-3-[4-(4-methyl-pyridin-2-yloxy)-benzyl]-thiazolidin-4-one] | – | – | – | – | 7 | 344
COc1cccc(OC)c1C1SCC(=O)N1Cc1ccc(Oc2ncccc2C)cc1 (stereo not drawn) [Example 285, 2-(2,6-Dimethoxy-phenyl)-3-[4-(3-methyl-pyridin-2-yloxy)-benzyl]-thiazolidin-4-one] | – | – | – | – | 135 | 1220
COc1ccc(Oc2ccc(CN3C(=O)CSC3c3c(OC)cccc3OC)cc2)nc1 (stereo not drawn) [Example 286, 2-(2,6-Dimethoxy-phenyl)-3-[4-(5-methoxy-pyridin-2-yloxy)-benzyl]-thiazolidin-4-one] | – | – | – | – | 52 | 553
COc1cccc(OC)c1C1N(Cc2ccc(OC(F)(F)F)cc2)C(=O)CS1(=O)=O (stereo not drawn) [Example 288, 2-(2,6-Dimethoxy-phenyl)-1,1-dioxo-3-(4-trifluoromethoxy-benzyl)-thiazolidin-4-one] | – | – | – | – | 6 | 166
COc1cccc(OC)c1C1N(Cc2ccc(OC(C)C)cc2)C(=O)CS1(=O)=O (stereo not drawn) [Example 289, 2-(2,6-Dimethoxy-phenyl)-3-(4-isopropoxy-benzyl)-1,1-dioxo-thiazolidin-4-one] | – | – | – | – | 16 | 181
CCOc1ccc(CN2C(=O)CS(=O)(=O)C2c2c(OC)cccc2OC)cc1 (stereo not drawn) [Example 290, 2-(2,6-Dimethoxy-phenyl)-3-(4-ethoxy-benzyl)-1,1-dioxo-thiazolidin-4-one] | – | – | – | – | 21 | 375
